{"source": "patent US10968203B2", "about": "“Pyrimidinyl-pyridyloxy-naphthyl compounds and methods of treating IRE1-related diseases and disorders” (Genentech, Inc., priority 2017, dated 2021)", "note": "Counter-ions that a name gives are not always drawn.", "data": [{"test_system": "XBP1s-luc 293 LUC", "assay": "cellular PD assay, XBP1s-LUC reporter (Example 903)", "assay_type": "cell-based", "settings": "Table 1; read-out: XBP1s-luc 293 LUC (IC50)", "procedure,_shortened": "(§1)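 Cellular IRE1α pathway activity was quantified from the luciferase signal of an XBP1-Luc reporter, where the luciferase fusion is in frame and expressed only from the spliced XBP1 transcript.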", "units": {"IC50": "nM"}, "values": [{"smiles": "Cc1ccc2c(NC(=O)[C@@H]3C[C@@H]3F)cccc2c1Oc1ncccc1-c1ccnc(N[C@H]2CCCNC2)n1", "note": "(relative stereo) [Example 212, (1S,2S)-2-Fluoro-N-[6-methyl-5-[[3-[2-[[(3S)-3-piperidyl]amino]pyrimidin-4-yl]-2-pyridyl]oxy]-1-naphthyl]cyclopropanecarboxamide]", "IC50": 122}, {"smiles": "Cc1ccc2c(NS(=O)(=O)CC3CCC3)cccc2c1Oc1ncccc1-c1ccnc(N[C@H]2CCCNC2)n1", "note": "[Example 127, (S)-1-Cyclobutyl-N-(6-methyl-5-((3-(2-(piperidin-3-ylamino)pyrimidin-4-yl)pyridin-2-yl)oxy)naphthalen-1-yl)methanesulfonamide]", "IC50": 233}, {"smiles": "Cc1ccc2c(NC[C@@H](O)CF)cccc2c1Oc1ncccc1-c1ccnc(N[C@H]2CCCNC2)n1", "note": "(single isomer, unassigned) [Example 334]", "IC50": 89.7}, {"smiles": "Cc1ccc2c(NCC3CC3(F)F)cccc2c1Oc1ncccc1-c1ccnc(N[C@H]2CCCNC2)n1", "note": "(mixture of isomers) [Example 341, 4-(2-((5-(((2,2-Difluorocyclopropyl)methyl)amino)-2-methylnaphthalen-1-yl)oxy)pyridin-3-yl)-N—((S)-piperidin-3-yl)pyrimidin-2-amine]", "IC50": 118}, {"smiles": "CCc1nc(CNc2cccc3c(Oc4ncccc4-c4ccnc(N[C@H]5CCCNC5)n4)c(C)ccc23)cs1", "note": "[Example 345, (S)-4-(2-((5-(((2-Ethylthiazol-4-yl)methyl)amino)-2-methylnaphthalen-1-yl)oxy)pyridin-3-yl)-N-(piperidin-3-yl)pyrimidin-2-amine]", "IC50": 171}, {"smiles": "CCCS(=O)(=O)Nc1c(F)ccc2c(Oc3ncccc3-c3ccnc(N[C@H]4CCCNC4)n3)c(C)ccc12", "note": "[Example 221, (S)—N-(2-Fluoro-6-methyl-5-((3-(2-(piperidin-3-ylamino)pyrimidin-4-yl)pyridin-2-yl)oxy)naphthalen-1-yl)propane-1-sulfonamide]", "IC50": 37}, {"smiles": "Cc1ccc2c(NS(=O)(=O)C(C)C)cccc2c1Oc1ncccc1-c1ccnc(N[C@H]2CCCNC2)n1", "note": "[Example 106, (S)—N-(6-Methyl-5-((3-(2-(piperidin-3-ylamino)pyrimidin-4-yl)pyridin-2-yl)oxy)naphthalen-1-yl) methylethylsulfonamide hydrochloride]", "IC50": 349}, {"smiles": "Cc1ccc2c(NC(=O)CC(C)(C)C)cccc2c1Oc1ncccc1-c1ccnc(N[C@@H]2CNC[C@H](C)C2)n1", "note": "[Example 302, 3,3-Dimethyl-N-(6-methyl-5-((3-(2-(((3S,5R)-5-methylpiperidin-3-yl)amino)pyrimidin-4-yl)pyridin-2-yl)oxy)naphthalen-1-yl)butanamide]", "IC50": 93.5}, {"smiles": "Cc1ccc2c(NCC[C@H]3CC3(F)F)cccc2c1Oc1ncccc1-c1ccnc(N[C@H]2CCCNC2)n1", "note": "(single isomer, unassigned) [Example 292]", "IC50": 294}, {"smiles": "Cc1ccc2c(Oc3ncccc3-c3ccnc(N[C@H]4CCCNC4)n3)c(C)ccc2c1NS(=O)(=O)CC(C)C", "note": "[Example 376, (S)—N-(2,6-Dimethyl-5-((3-(2-(piperidin-3-ylamino)pyrimidin-4-yl)pyridin-2-yl)oxy)naphthalen-1-yl)-2-methylpropane-1-sulfonamide]", "IC50": 73.5}, {"smiles": "Cc1ccc2c(NC(=O)[C@H]3CC34CCCC4)cccc2c1Oc1ncccc1-c1ccnc(N[C@H]2CCCNC2)n1", "note": "(single isomer, unassigned) [Example 253]", "IC50": 352}, {"smiles": "Cc1ccc2c(NS(=O)(=O)N(C)C)cccc2c1Oc1ncccc1-c1ccnc(N[C@H]2CCCNC2)n1", "note": "[Example 109, 4-[2-[[5-(Dimethylsulfamoylamino)-2-methyl-1-naphthyl]oxy]-3-pyridyl]-2-[[(3S)-3-piperidyl]amino]pyrimidine hydrochloride]", "IC50": 222}, {"smiles": "CC[C@@H](C)C(=O)Nc1cccc2c(Oc3ncccc3-c3ccnc(N[C@H]4CCCNC4)n3)c(C)ccc12", "note": "[Example 204, (R)-2-methyl-N-(6-methyl-5-((3-(2-(((S)-piperidin-3-yl)amino)pyrimidin-4-yl)pyridin-2-yl)oxy)naphthalen-1-yl)butanamide]", "IC50": 449}, {"smiles": "Cc1ccc2c(NS(=O)(=O)Cc3ccccc3F)c(F)ccc2c1Oc1ncccc1-c1ccnc(N[C@H]2CCCNC2)n1", "note": "[Example 391, (S)—N-(2-Fluoro-6-methyl-5-((3-(2-(piperidin-3-ylamino)pyrimidin-4-yl)pyridin-2-yl)oxy)naphthalen-1-yl)-1-(2-fluorophenyl)methanesulfonamide]", "IC50": 2.77}, {"smiles": "Cc1ccc2c(NC(=O)C3(C)CC3)cccc2c1Oc1ncccc1-c1ccnc(N[C@@H]2CNC[C@H](C)C2)n1", "note": "[Example 368, 1-Methyl-N-(6-methyl-5-((3-(2-(((3S,5R)-5-methylpiperidin-3-yl)amino)pyrimidin-4-yl)pyridin-2-yl)oxy)naphthalen-1-yl)cyclopropanecarboxamide]", "IC50": 214}, {"smiles": "Cc1ccc2c(NC(=O)[C@@H]3CCC(F)(F)C3)cccc2c1Oc1ncccc1-c1ccnc(N[C@H]2CCCNC2)n1", "note": "(single isomer, unassigned) [Example 269]", "IC50": 336}, {"smiles": "Cc1ccc2c(NS(=O)(=O)CCl)cccc2c1Oc1ncccc1-c1ccnc(N[C@H]2CCCNC2)n1", "note": "[Example 151, (S)-1-Chloro-N-(6-methyl-5-((3-(2-(piperidin-3-ylamino)pyrimidin-4-yl)pyridin-2-yl)oxy)naphthalen-1-yl)methanesulfonamide]", "IC50": 140}, {"smiles": "Cc1ccc2c(NC[C@H](O)c3ccccc3)cccc2c1Oc1ncccc1-c1ccnc(N[C@H]2CCCNC2)n1", "note": "[Example 309, (R)-2-((6-Methyl-5-((3-(2-((S)-piperidin-3-ylamino)pyrimidin-4-yl)pyridin-2-yl)oxy)naphthalen-1-yl)amino)-1-phenylethanol]", "IC50": 433}, {"smiles": "Cc1ccc2c(NC(=O)[C@@H]3CC3C3CC3)cccc2c1Oc1ncccc1-c1ccnc(N[C@H]2CCCNC2)n1", "note": "(single isomer, unassigned) [Example 274]", "IC50": 100}, {"smiles": "Cc1ccc2c(NC(=O)Cc3ccc(F)cc3)cccc2c1Oc1ncccc1-c1ccnc(N[C@H]2CCCNC2)n1", "note": "[Example 199, (S)-2-(4-Fluorophenyl)-N-(6-methyl-5-((3-(2-(piperidin-3-ylamino)pyrimidin-4-yl)pyridin-2-yl)oxy)naphthalen-1-yl)acetamide]", "IC50": 155}, {"smiles": "Cc1ccc2c(NS(=O)(=O)CC3CCCO3)cccc2c1Oc1ncccc1-c1ccnc(N[C@H]2CCCNC2)n1", "note": "(stereo partly drawn) [Example 141, N-(6-Methyl-5-((3-(2-((S)-piperidin-3-ylamino)pyrimidin-4-yl)pyridin-2-yl)oxy)naphthalen-1-yl)-1-(tetrahydrofuran-2-yl)methanesulfonamide]", "IC50": 457}, {"smiles": "Cc1ccc2c(NS(=O)(=O)CC(C)C)c(F)ccc2c1Oc1ncccc1-c1ccnc(N[C@@H]2CNC[C@H](C)C2)n1", "note": "[Example 369, N-(2-Fluoro-6-methyl-5-((3-(2-(((3S,5R)-5-methylpiperidin-3-yl)amino)pyrimidin-4-yl)pyridin-2-yl)oxy)naphthalen-1-yl)-2-methylpropane-1-sulfonamide]", "IC50": 19.4}, {"smiles": "Cc1ccc2c(NC(=O)C3CC34CCCCC4)cccc2c1Oc1ncccc1-c1ccnc(N[C@H]2CCCNC2)n1", "note": "(mixture of isomers) [Example 281, N-(6-Methyl-5-((3-(2-(((S)-piperidin-3-yl)amino)pyrimidin-4-yl)pyridin-2-yl)oxy)naphthalen-1-yl)spiro[2.5]octane-1-carboxamide]", "IC50": 89}, {"smiles": "Cc1ccc2c(NC(=O)CC3CC4CCC3C4)cccc2c1Oc1ncccc1-c1ccnc(N[C@H]2CCCNC2)n1", "note": "(stereo partly drawn) [Example 286, 2-(Bicyclo[2.2.1]heptan-2-yl)-N-(6-methyl-5-((3-(2-((S)-piperidin-3-ylamino)pyrimidin-4-yl)pyridin-2-yl)oxy)naphthalen-1-yl)acetamide]", "IC50": 174}]}, {"test_system": "XBP1s-luc 293 LUC", "assay": "cellular PD assay, XBP1s-LUC reporter (Example 903)", "assay_type": "cell-based", "settings": "Table 2; read-out: XBP1s-luc 293 LUC (IC50)", "procedure,_shortened": "as §1", "units": {"IC50": "nM"}, "values": [{"smiles": "CO[C@@H](C)CS(=O)(=O)Nc1c(F)ccc2c(Oc3ncccc3-c3ccnc(N[C@H]4CCCNC4)n3)c(C)ccc12", "note": "(single isomer, unassigned) [Example 393, hydrochloride]", "IC50": 76}, {"smiles": "CCN(C)S(=O)(=O)Nc1c(F)ccc2c(Oc3ncccc3-c3ccnc(N[C@H]4CCCNC4)n3)c(C)ccc12", "note": "[Example 421, 4-[2-[[5-[[Ethyl(methyl)sulfamoyl]amino]-6-fluoro-2-methyl-1-naphthyl]oxy]-3-pyridyl]-2-[[(3S)-3-piperidyl]amino]pyrimidine hydrochloride]", "IC50": 44}, {"smiles": "Cc1ccc2c(NS(=O)(=O)Cc3cccc(C#N)c3)c(F)ccc2c1Oc1ncccc1-c1ccnc(N[C@H]2CCCNC2)n1", "note": "[Example 425, (S)-1-(3-Cyanophenyl)-N-(2-fluoro-6-methyl-5-((3-(2-(piperidin-3-ylamino)pyrimidin-4-yl)pyridin-2-yl)oxy)naphthalen-1-yl)methanesulfonamide hydrochloride]", "IC50": 16}, {"smiles": "Cc1ccc2c(NS(=O)(=O)CC(C)C)c(F)ccc2c1Oc1ncccc1-c1ccnc(N[C@@H]2CNC[C@@H](C)C2)n1", "note": "[Example 401, N-[2-Fluoro-6-methyl-5-[[3-[2-[[(3S,5S)-5-methyl-3-piperidyl]amino]pyrimidin-4-yl]-2-pyridyl]oxy]-1-naphthyl]-2-methyl-propane-1-sulfonamide hydrochloride]", "IC50": 67}, {"smiles": "CCC(F)(F)CS(=O)(=O)Nc1c(F)ccc2c(Oc3ncccc3-c3ccnc(N[C@H]4CNC[C@H](F)C4)n3)c(C)ccc12", "note": "(single isomer, unassigned) [Example 495, hydrochloride]", "IC50": 469}, {"smiles": "Cc1ccc2c(NCC(F)CF)cccc2c1Oc1ncccc1-c1ccnc(N[C@H]2CCCNC2)n1", "note": "(mixture of isomers) [Example 460, 4-[2-[[5-(2,3-Difluoropropylamino)-2-methyl-1-naphthyl]oxy]-3-pyridyl]-N-[(3S)-3-piperidyl]pyrimidin-2-amine hydrochloride]", "IC50": 92}, {"smiles": "Cc1ccc2c(NS(=O)(=O)C=C3CCC3)c(F)ccc2c1Oc1ncccc1-c1ccnc(N[C@H]2CCCNC2)n1", "note": "[Example 413, 1-Cyclobutylidene-N-[2-fluoro-6-methyl-5-[[3-[2-[[(3S)-3-piperidyl]amino]pyrimidin-4-yl]-2-pyridyl]oxy]-1-naphthyl]methanesulfonamide hydrochloride]", "IC50": 50}]}]}
